Measurements as given in the supplement of paper PMC11962398.

Tests used:
BI-2493 [1] = compound: T1, C[C@H]1CNCCN1c1nccc(-c2noc3c2CCC[C@@]32CCCc3sc(N)c(C#N)c32)n1 [BI-2493]; assay: 1 - AUC of viability dose-response curve (sensitivity) (fraction); higher = more sensitive; details: 5 days
Experimental: (§1)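 PRISM pooled barcoded cancer cell line viability screen (Broad Institute) with BI-2493 at 8 doses in threefold dilutions from 0.00457 to 10 µmol/L, 5-day treatment; curves fitted per cell line. IC50 is undefined (placeholder) for resistant lines. AUC is capped at 1, and sensitivity is reported as 1 − AUC.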

BI-2493 [2] = compound: T1, BI-2493; details: 5 days
Experimental: as §1

Test System | 1 - AUC of viability dose-response curve (BI-2493 [1]) | IC50 of cell viability (BI-2493 [2])
NCIH1092_LUNG | 0.131 | 3.99 µM
NCIH1299_LUNG | 0.0368 | 8.5 µM
NCIH1339_LUNG | 0.0455 | 6.82 µM
NCIH1341_LUNG | 0.146 | > 10 µM
NCIH1355_LUNG | 0.219 | 2.46 µM
NCIH1435_LUNG | 0.0748 | 4.95 µM
NCIH1437_LUNG | 0.153 | 4.73 µM
NCIH1563_LUNG | 0.00763 | 9.88 µM
NCIH1568_LUNG | 0.0444 | 7.78 µM
NCIH1573_LUNG | 0.0775 | 7.27 µM
NCIH1581_LUNG | 0.0823 | 8.08 µM
NCIH1623_LUNG | 0.0102 | 9.93 µM
NCIH1648_LUNG | 0.26 | 1.57 µM
NCIH1650_LUNG | 0.042 | 8.06 µM
NCIH1694_LUNG | 0.00415 | > 10 µM
NCIH1703_LUNG | 0.0509 | > 10 µM
NCIH1792_LUNG | 0.342 | 1.04 µM
NCIH1793_LUNG | 0.16 | 8.29 µM
NCIH1838_LUNG | 0.0993 | > 10 µM
NCIH1876_LUNG | 0.0823 | 3.89 µM
NCIH1915_LUNG | 0.0137 | 9.46 µM
NCIH1944_LUNG | 0.22 | 8.69 µM
NCIH1975_LUNG | 0.0712 | 6.8 µM
NCIH2004RT_SOFT_TISSUE | 0.0737 | > 10 µM
NCIH2009_LUNG | 0.149 | 5.8 µM

Test System | 1 - AUC of viability dose-response curve (BI-2493 [1]) | IC50 of cell viability (BI-2493 [2])
NCIH2023_LUNG | 0.208 | 2.57 µM
NCIH2030_LUNG | 0.206 | 3.34 µM
NCIH2077_LUNG | 0.182 | 8.95 µM
NCIH2087_LUNG | 0.104 | 3.99 µM
NCIH2110_LUNG | 0.0708 | 6.61 µM
NCIH2122_LUNG | 0.138 | 3.6 µM
NCIH2126_LUNG | 0.142 | 9.82 µM
NCIH2170_LUNG | 0.0861 | > 10 µM
NCIH2171_LUNG | 0.0377 | 9.88 µM
NCIH2172_LUNG | 0.0555 | 8.7 µM
NCIH2228_LUNG | 0.0876 | 7.89 µM
NCIH2347_LUNG | 0.138 | 4.63 µM
NCIH2444_LUNG | 0.102 | 6.69 µM
NCIH2452_PLEURA | 0.00394 | > 10 µM
NCIN87_STOMACH | 0.00691 | 9.6 µM
NCO2_HAEMATOPOIETIC_AND_LYMPHOID_TISSUE | 0.117 | 4.33 µM
NIHOVCAR3_OVARY | 0.103 | 8.37 µM
NOMO1_HAEMATOPOIETIC_AND_LYMPHOID_TISSUE | 0.38 | 0.331 µM
NOZ_LIVER | 0.0154 | 9.22 µM
NP2_CENTRAL_NERVOUS_SYSTEM | 0.085 | 9.05 µM
NP3_CENTRAL_NERVOUS_SYSTEM | 0.0412 | 8.21 µM
NP5_CENTRAL_NERVOUS_SYSTEM | 0.108 | 3.54 µM
NUDHL1_HAEMATOPOIETIC_AND_LYMPHOID_TISSUE | 0.441 | 0.306 µM
NUGC3_STOMACH | 0.236 | 2.68 µM
NZOV9_OVARY | 0.155 | 8.42 µM

Test System | 1 - AUC of viability dose-response curve (BI-2493 [1]) | IC50 of cell viability (BI-2493 [2])
OACM51_OESOPHAGUS | 0.0865 | 6.83 µM
OAW42_OVARY | 0.104 | 5.86 µM
OC314_OVARY | 0.113 | 5.96 µM
OC316_OVARY | 0.113 | 5.73 µM
OCIAML2_HAEMATOPOIETIC_AND_LYMPHOID_TISSUE | 0.209 | 3 µM
OCIAML3_HAEMATOPOIETIC_AND_LYMPHOID_TISSUE | 0.23 | 2.15 µM
OCIC4P_OVARY | 0.115 | 6.47 µM
OCIC5X_OVARY | 0.0098 | 9.57 µM
OCILY3_HAEMATOPOIETIC_AND_LYMPHOID_TISSUE | 0.0575 | 7.48 µM
OCILY19_HAEMATOPOIETIC_AND_LYMPHOID_TISSUE | 0.19 | 3.56 µM
OCILY132_HAEMATOPOIETIC_AND_LYMPHOID_TISSUE | 0.0816 | 7.21 µM
OCIM1_HAEMATOPOIETIC_AND_LYMPHOID_TISSUE | 0.0683 | 6.84 µM
OCIP5X_OVARY | 0.00791 | 9.58 µM
OCUG1_BILIARY_TRACT | 0.132 | 4.77 µM
OE19_OESOPHAGUS | 0.168 | 4.24 µM
OE21_OESOPHAGUS | 0.112 | 3.82 µM
OE33_OESOPHAGUS | 0.041 | 8.75 µM
ONCODG1_OVARY | 0.0507 | 8.36 µM
ONDA9_CENTRAL_NERVOUS_SYSTEM | 0.0973 | 5.1 µM
ONS76_CENTRAL_NERVOUS_SYSTEM | 0.133 | 5.21 µM
OSC20_UPPER_AERODIGESTIVE_TRACT | 0.165 | 9.09 µM
OSRC2_KIDNEY | 0.0909 | 4.48 µM
OUMS23_LARGE_INTESTINE | 0.165 | 8.65 µM
OV17R_OVARY | 0.044 | 9.34 µM
OV56_OVARY | 0.0641 | > 10 µM

Test System | 1 - AUC of viability dose-response curve (BI-2493 [1]) | IC50 of cell viability (BI-2493 [2])
OVCAR8_OVARY | 0.00937 | 9.61 µM
OVISE_OVARY | 0.105 | 4.17 µM
OVK18_OVARY | 0.228 | 1.81 µM
OVKATE_OVARY | 0.086 | 4.22 µM
OVTOKO_OVARY | 0.123 | 4.32 µM
OZ_BILIARY_TRACT | 0.0583 | 6.81 µM
P12ICHIKAWA_HAEMATOPOIETIC_AND_LYMPHOID_TISSUE | 0.121 | 3.63 µM
PA1_OVARY | 0.176 | 1.45 µM
PACADD119_PANCREAS | 0.169 | 4.59 µM
PACADD137_PANCREAS | 0.104 | 8.11 µM
PACADD161_PANCREAS | 0.185 | 5.87 µM
PANC1_PANCREAS | 0.128 | 4.69 µM
PANC0203_PANCREAS | 0.327 | 1.16 µM
PANC0327_PANCREAS | 0.138 | 7.84 µM
PANC0403_PANCREAS | 0.379 | 0.501 µM
PANC0504_PANCREAS | 0.286 | 1.18 µM
PANC0813_PANCREAS | 0.27 | 7.44 µM
PANC1005_PANCREAS | 0.121 | 3.98 µM
PATU8902_PANCREAS | 0.0766 | 6.58 µM
PATU8988S_PANCREAS | 0.197 | 1.14 µM
PATU8988T_PANCREAS | 0.0812 | 4.5 µM
PC3_PROSTATE | 0.0397 | > 10 µM
PC14_LUNG | 0.181 | 3.98 µM
